Assay results reported in US7241905B2, “Dioxin analogues and methods and kits for searching out dioxins-decomposing organisms or enzymes or dioxin-decomposing enzyme genes” (Forestry and Forest Products Research Institute, priority 2001, dated 2007).

Key:
Type in all cases: cell-based
Fomitopsis palustris [1] = assay: Degradation of dioxin in fungal culture, measured with a dioxin immunoassay kit; settings: F. palustris culture (negative control fungus), 0.5 ppm, cultured 20 days, attributed to non-specific binding to fungal cells
Experimental: (§1) Pleurotus pulumonairus, which has proven to cause the most intense fluorescence in Examples 3 and 4, was examined for its ability to degrade dioxin.
(§2) As in Examples 3 and 4, Pleurotus pulumonairus was cultured in a culture medium containing glucose and peptone and, on day 7, 2,3,7,8-tetrachlorodioxin was added to the medium at a final concentration of 0.5 ppm. The fungus was subsequently cultured for 20 days. After the culturing period, the culture medium containing the fungus was freeze-dried and was subjected to extraction by refluxing with hexane. Hexane was then removed by distillation and the remaining culture was diluted 200-fold with 200 ml methanol containing 100 ppm Triton X-100. Using a High Performance Dioxin Immunoassay Kit (Cape Technologies, United States) according to the manufacturer's instruction, the concentration of dioxin was measured to determine the degradation rate of dioxin. A control shown in Table 2 is the above-described culture medium with only 2,3,7,8-tetrachlorodioxin added. Fomitopsis palustris was used as a negative control.

Pleurotus pulumonairus [2] = assay: as above; settings: P. pulumonairus culture; 0.5 ppm; cultured 20 days; control medium without fungus 0%
Experimental: as §1, §2

Coriolus versicolor = assay: Screening of wood-rotting fungi for degradation of the esculetin-type dioxin analogue (fluorescence of metabolites); settings: C. versicolor culture; substrate 1 ppm; day 7; excitation 350 nm, emission 450 nm; control medium without fungus 1370
Experimental: (§3) Different species of wood-rotting fungi (i.e., Grammothele fuligo WD844, Phanerochaete crassa WD1694, Phanerochaete chrysosporium ME446, Fomitopsis palustris, Coriolus versicolor, and Pleurotus pulumonairus) were used as test subjects and were screened for the ability to degrade the dioxin analogue obtained in Example 1 (esculetin-type analogue).
(§4) Each subject fungal species, which had been pre-cultured on potato agar and stamped out of the agar using a cork borer, was inoculated onto 10 ml modified NS medium (3% glucose, 1% peptone, inorganic salts, pH 5.0) in a 100 ml Erlenmeyer flask and was cultured for 5 to 7 days at 28° C. Subsequently, a 100 μl DMSO solution containing the substrate (esculetin-type dioxin analogue obtained in Example 1) at a final concentration of 1 ppm was added to the culture. The solution was added so that the concentration of DMSO in the medium was 1%. Samples of the culture solution were collected at predetermined time intervals (i.e., 1, 3, and 5 days after the addition of the substrate). To a 100 μl portion of each sample, 1.9 ml of an alkaline buffer (100 mM glycine, 100 mM sodium hydroxide, pH 10.0) was added. The sample mixtures were then exposed to long-range UV light (365 nm) as excitation light and were visually screened for those emitting fluorescence. On day 7, the samples were irradiated with excitation light of 350 nm and, using a fluorescence spectrophotometer, the intensity of fluorescence was measured at 450 nm. A control shown in Table 1 is the above-described culture medium with only dioxin analogue (esculetin-type) added.

[3] = system: Phanerochaete crassa WD1694; assay: as above; settings: P. crassa WD1694 culture; substrate 1 ppm; day 7; excitation 350 nm, emission 450 nm; control medium without fungus 1370
Experimental: as §3, §4

Grammothele fuligo WD844 = assay: as above; settings: G. fuligo WD844 culture; substrate 1 ppm; day 7; excitation 350 nm, emission 450 nm; control medium without fungus 1370
Experimental: as §3, §4

Fomitopsis palustris [4] = assay: as above; settings: F. palustris culture; substrate 1 ppm; day 7; excitation 350 nm, emission 450 nm; control medium without fungus 1370
Experimental: as §3, §4

Pleurotus pulumonairus [5] = assay: as above; settings: P. pulumonairus culture; substrate 1 ppm; day 7; excitation 350 nm, emission 450 nm; control medium without fungus 1370
Experimental: as §3, §4

[6] = system: Phanerochaete chrysosporium ME446; assay: as above; settings: P. chrysosporium ME446 culture; substrate 1 ppm; day 7; excitation 350 nm, emission 450 nm; control medium without fungus 1370
Experimental: as §3, §4

Pleurotus pulumonairus [7] = assay: Screening of wood-rotting fungi for degradation of the naphthalene-type dioxin analogue (visual fluorescence); settings: P. pulumonairus culture; substrate 1 ppm; samples 1, 3 and 5 days after addition; UV 365 nm; compared with the other five fungi
Experimental: as §3, with “2 (naphthalene-type” for “1 (esculetin-type”
as §4, with “pH5.0)” for “pH 5.0)”, “naphthalene-type” for “(esculetin-type”, “2” for “1)”, “μportion” for “μl portion”, “pH10.0)” for “pH 10.0)”, “fluorescence.” for “fluorescence. On day 7, the samples were irradiated with excitation light of 350 nm and, using a fluorescence spectrophotometer, the intensity of fluorescence was measured at 450 nm. A control shown in Table 1 is the above-described culture medium with only dioxin analogue (esculetin-type) added.”

SMILES: Clc1cc2c(cc1Cl)Oc1cc(Cl)c(Cl)cc1O2 [2,3,7,8-tetrachlorodioxin]
- Degradation rate (Fomitopsis palustris [1]): 9%
- Degradation rate (Fomitopsis palustris [1]; listed as dioxin): 9%
- Degradation rate (Pleurotus pulumonairus [2]): 31%

SMILES: Cc1cc(=O)oc2cc3c(cc12)Oc1cc(Cl)c(Cl)cc1O3 [Example 1]
- Fluorecsence intensity (Coriolus versicolor): 1601
- Fluorecsence intensity [3]: 1419
- Fluorecsence intensity (Grammothele fuligo WD844): 1639
- Fluorecsence intensity (Fomitopsis palustris [4]): 1314
- Fluorecsence intensity (Pleurotus pulumonairus [5]): 2203
- Fluorecsence intensity [6]: 1619

SMILES: Clc1cc2c(cc1Cl)Oc1cc3ccccc3cc1O2 [Example 2]
- Fluorescence emission, visually screened (Pleurotus pulumonairus [7]): most intense fluorescence emission
